Test results taken from US7893266B2, “Detection of cancer cells in vitro using sigma-2 receptor ligands as radiotracers” (Washington University, priority 2003, dated 2011).
Read-outs that look alike come from different tables or passages of the source.

Target: T1, σ2 receptor (Rattus norvegicus, UniProt Q5U3Y7)
T1 construct: rat liver membrane homogenates (35 μg of protein); from tissue; host or cells: rat liver membrane homogenates
T1 sequence (Q5U3Y7 1-176): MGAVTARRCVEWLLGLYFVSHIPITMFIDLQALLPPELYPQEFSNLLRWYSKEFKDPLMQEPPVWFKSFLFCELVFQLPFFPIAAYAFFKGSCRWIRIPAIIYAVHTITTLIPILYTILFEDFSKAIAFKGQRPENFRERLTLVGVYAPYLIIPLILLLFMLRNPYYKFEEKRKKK
Assay: σ2 receptor binding assay, [3H]DTG, rat liver membrane homogenates
Protocol: The σ2 receptor binding assay was conducted using rat liver membrane homogenates (35 μg of protein). […] Incubations were carried out in 50 mM Tris-HCl (pH 8.0) for 120 min at 25° C. in a total incubation volume of 0.5 ml. Test compounds were added in concentrations ranging from 0.005 to 1000 nM. […] Filters were washed twice with 5 ml of ice cold buffer. Nonspecific binding was determined in the presence of 5 μM DTG.

Ki (Mean ± SEM, rat liver, [3H]DTG, read-out: Ki σ2): 0.0133 ± 0.0001 µM
Ki (Table I, unit inferred, read-out: σ2): 0.0133 µM
Compound: COc1cc2c(cc1OC)CN(CCNC(=O)c1cc(C)ccc1OC)CC2 [Compound 9]
